These compounds were tested against T1, human metabotropic glutamate receptor 5 (hmGluR5) (Homo sapiens, UniProt P41594) (assay: Calcium mobilization (FLIPR) assay for negative allosteric modulation, EC80 glutamate, hmGluR5 in HEK 293). Details: HEK293; hmGluR5, inhibition of EC80 glutamate response; read-out: FLIPR maximum inhibition.
T1 construct: expressed in transfected cells
Assay type: cell-based
Description: The cDNA for rat metabotropic glutamate receptor 5 (rmGluR5) and the cDNA for human metabotropic glutamate receptor 5 (hmGluR5) were generous gifts from S. Nakanishi (Kyoto University, Kyoto, Japan). The rmGluR5 or hmGluR5 was stably expressed in a HEK 293 cell line and grown in Dulbecco's Modified Eagle Medium (DMEM) (Invitrogen, Carlsbad, Calif.) with supplements (10% bovine calf serum, 4 mM glutamine, 100 units/mL penicillin, 100 μg/mL streptomycin and 0.75 mM G1418) at 37° C., 5% CO2. Twenty-four hours prior to assay, cells were seeded into 384-well black wall microtiter plates coated with poly-D-lysine. Just prior to assay, media was aspirated and cells dye-loaded (25 μL/well) with 3 μM Fluo-4/0.01% pluronic acid in assay buffer (Hank's Balanced Saline Solution (HBSS)): 150 mM NaCl, 5 mM KCl, 1 mM CaCl2, 1 mM MgCl2, plus 20 mM N-2-Hydroxyethylpiperazine-N′-2-ethanesulfonic acid (HEPES), pH 7.4, 0.1% bovine serum albumin (BSA) and 2.5 mM probenicid) for 1 hour in 5% CO2 at 37° C. After excess dye was discarded, cells were washed in assay buffer and layered with a final volume equal to 30 μL/well. Basal fluorescence is monitored in a fluorometric imaging plate reader (FLIPR) (Molecular Devices, Sunnyvale, Calif.) with an excitation wavelength of 488 nm and an emission range of 500 to 560 nm. Laser excitation energy was adjusted so that basal fluorescence readings were approximately 10,000 relative fluorescent units. Cells were stimulated with an EC20 or an EC80 concentration of glutamate in the presence of a compound to be tested, both diluted in assay buffer, and relative fluorescent units were measured at defined intervals (exposure=0.6 sec) over a 3 min period at room temperature. Basal readings derived from negative controls were subtracted from all samples. Maximum change in fluorescence was calculated for each well. Concentration-response curves derived from the maximum change in fluorescence were analyzed by nonlinear regression (Hill equation). A negative modulator can be identified from these concentration-response curves if a compound produces a concentration dependent inhibition of the EC80 glutamate response.

T1 sequence (P41594 21-1212): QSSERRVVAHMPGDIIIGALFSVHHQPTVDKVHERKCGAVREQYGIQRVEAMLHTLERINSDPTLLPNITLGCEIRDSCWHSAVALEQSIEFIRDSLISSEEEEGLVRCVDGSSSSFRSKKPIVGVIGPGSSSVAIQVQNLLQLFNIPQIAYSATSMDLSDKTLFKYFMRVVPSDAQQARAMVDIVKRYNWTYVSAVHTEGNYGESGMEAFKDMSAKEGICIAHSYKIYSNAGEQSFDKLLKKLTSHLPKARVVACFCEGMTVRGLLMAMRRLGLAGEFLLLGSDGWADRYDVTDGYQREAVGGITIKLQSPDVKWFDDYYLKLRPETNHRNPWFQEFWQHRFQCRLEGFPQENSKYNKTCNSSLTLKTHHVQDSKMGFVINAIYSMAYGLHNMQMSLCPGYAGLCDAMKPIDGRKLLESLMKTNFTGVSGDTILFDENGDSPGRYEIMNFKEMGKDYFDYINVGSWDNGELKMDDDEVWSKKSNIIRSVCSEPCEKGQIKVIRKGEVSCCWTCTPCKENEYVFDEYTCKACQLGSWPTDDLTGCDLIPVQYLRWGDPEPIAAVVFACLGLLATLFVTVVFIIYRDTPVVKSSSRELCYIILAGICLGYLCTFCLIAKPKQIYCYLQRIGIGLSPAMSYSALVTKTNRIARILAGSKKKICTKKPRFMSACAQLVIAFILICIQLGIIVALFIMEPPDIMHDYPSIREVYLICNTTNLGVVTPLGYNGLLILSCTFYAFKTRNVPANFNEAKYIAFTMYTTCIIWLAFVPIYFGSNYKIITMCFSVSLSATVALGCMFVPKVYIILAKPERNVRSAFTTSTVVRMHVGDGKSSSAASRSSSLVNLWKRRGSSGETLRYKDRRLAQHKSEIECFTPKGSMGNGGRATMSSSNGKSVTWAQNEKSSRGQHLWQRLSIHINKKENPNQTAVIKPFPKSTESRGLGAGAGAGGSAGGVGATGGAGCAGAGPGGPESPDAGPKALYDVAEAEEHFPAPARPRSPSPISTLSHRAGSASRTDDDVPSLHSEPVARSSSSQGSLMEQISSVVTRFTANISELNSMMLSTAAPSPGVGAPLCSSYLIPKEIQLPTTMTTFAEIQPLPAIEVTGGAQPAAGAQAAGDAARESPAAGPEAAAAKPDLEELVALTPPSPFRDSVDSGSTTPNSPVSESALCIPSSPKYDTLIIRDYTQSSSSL

Compound | Emax
Cc1cccc(C(=O)N[C@H]2CCC[C@]3(CCN(c4cc(-c5ccc(F)cc5)ncn4)C3=O)C2)n1 (relative stereo) [Example 87, cis-6-Methyl-pyridine-2-carboxylic acid {2-[6-(4-fluoro-phenyl)-pyrimidin-4-yl]-1-oxo-2-aza-spiro [4.5]dec-7-yl}-amide] | 73 to 95%
O=C(N[C@H]1CCC[C@]2(CCN(c3cc(-c4ccc(F)cc4)ncn3)C2=O)C1)c1cccc(F)c1 (relative stereo) [Example 88, cis-3-Fluoro-N-{2-[6-(4-fluoro-phenyl)-pyrimidin-4-yl]-1-oxo-2-aza-spiro[4.5]dec-7-yl}-benzamide] | 73 to 95%
Cc1nccc(N2CC[C@]3(CCC[C@H](NC(=O)c4ccc(F)cc4)C3)C2=O)n1 (relative stereo) [Example 89, cis-4-Fluoro-N-[2-(2-methyl-pyrimidin-4-yl)-1-oxo-2-aza-spiro [4.5]dec-7-yl]-benzamide] | 73 to 95%
Cc1nccc(N2CC[C@]3(CCC[C@H](NC(=O)c4ccc(F)c(F)c4)C3)C2=O)n1 (relative stereo) [Example 90, cis-3,4-Difluoro-N-[2-(2-methyl-pyrimidin-4-yl)-1-oxo-2-aza-spiro [4.5]dec-7-yl]-benzamide] | 73 to 95%
Cc1nccc(N2CC[C@]3(CCC[C@H](NC(=O)c4ccccc4F)C3)C2=O)n1 (relative stereo) [Example 91, cis-2-Fluoro-N-[2-(2-methyl-pyrimidin-4-yl)-1-oxo-2-aza-spiro [4.5]dec-7-yl]-benzamide] | 73 to 95%
Cc1cc(C(=O)N[C@H]2CCC[C@]3(CCN(c4ccnc(C)n4)C3=O)C2)ccn1 (relative stereo) [Example 92, cis-2-Methyl-N-[2-(2-methyl-pyrimidin-4-yl)-1-oxo-2-aza-spiro [4.5]dec-7-yl]-isonicotinamide] | 73 to 95%
O=C(N[C@H]1CCC[C@]2(CCN(c3cccc(F)c3)C2=O)C1)c1cccc(CO)n1 (relative stereo) [Example 93, cis-6-Hydroxymethyl-pyridine-2-carboxylic acid [2-(3-fluoro-phenyl)-1-oxo-2-aza-spiro[4.5]dec-7-yl]-amide] | 73 to 95%
O=C(N[C@H]1CCC[C@]2(CCN(c3cccc(F)c3)C2=O)C1)c1cccc(C(F)(F)F)n1 (relative stereo) [Example 94, cis-6-Trifluoromethyl-pyridine-2-carboxylic acid [2-(3-fluoro-phenyl)-1-oxo-2-aza-spiro[4.5]dec-7-yl]-amide] | 73 to 95%
Cc1nccc(N2CC[C@]3(CCC[C@H](NC(=O)c4cccc(C(F)(F)F)n4)C3)C2=O)n1 (relative stereo) [Example 96, cis-6-Trifluoromethyl-pyridine-2-carboxylic acid [2-(2-methyl-pyrimidin-4-yl)-1-oxo-2-aza-spiro [4.5]dec-7-yl]-amide] | 73 to 95%
Cc1nccc(C(=O)N[C@@H]2CC(F)(F)C[C@]3(CCN(c4cc(F)cc(F)c4)C3=O)C2)n1 (relative stereo) [Example 105, trans-2-Methyl-pyrimidine-4-carboxylic acid [2-(3,5-difluoro-phenyl)-9,9-difluoro-1-oxo-2-aza-spiro[4.5]dec-7-yl]-amide] | 47 to 93%
O=C(N[C@@H]1CC(F)(F)C[C@@]2(CCN(c3ccc(F)cc3)C2=O)C1)c1ccccn1 (relative stereo) [Example 106, cis-Pyridine-2-carboxylic acid [9,9-difluoro-2-(4-fluoro-phenyl)-1-oxo-2-aza-spiro[4.5]dec-7-yl]-amide] | 47 to 93%
Cc1cccc(C(=O)N[C@@H]2CC(F)(F)C[C@@]3(CCN(c4cccc(F)c4)C3=O)C2)n1 (relative stereo) [Example 107, cis-6-Methyl-pyridine-2-carboxylic acid [9,9-difluoro-2-(3-fluoro-phenyl)-1-oxo-2-aza-spiro[4.5]dec-7-yl]-amide] | 47 to 93%
